# In US20050245399A1, “Pyrazole derivatives as herbicidal compositions containing them” (ISHIHARA SANGYO KAISHA, LTD., priority 2004, published 2005):
# Tested on: corn (Zea mays L.), ZEAMX
# Assay: Test Example 2 post-emergence (foliage treatment) herbicidal activity, ZEAMX
# Format: in vivo
# Conditions: 63 g a.i./ha
# Outline: (§1)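 A small sprayer delivered the diluted WP or EC formulation (500 L/ha water, 0.1% v/v spreader) over emerged seedlings in upland soil pots. Damage relative to untreated plants was graded visually from 0 to 100% three weeks or so later (days 20-23).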
row,SMILES,"growth controlling degree, ZEAMX [%]"
1,CCOC(=O)C(C)N(C=O)c1c(OC)c(Cl)cc(F)c1-c1nn(C)c(OC(F)F)c1Cl (stereo not shown) [Compound 1-42],0
2,C#CCOC(=O)Nc1c(OC)c(Cl)cc(F)c1-c1nn(C)c(OC(F)F)c1Cl [Compound 1-74],30

# Tested on: rice (Oryza sativa L.), ORYSA
# Assay: Test Example 2 post-emergence (foliage treatment) herbicidal activity, ORYSA
# Format: in vivo
# Conditions: 63 g a.i./ha
# Outline: (§2)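 Foliar spray of formulated compound (500 L/ha dilution water, 0.1% v/v spreader) onto young potted plants at defined leaf stages. Scored 0-100% by visual inspection 20-23 d post-spray.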
row,SMILES,"growth controlling degree, ORYSA [%]"
1,CCOC(=O)C(C)N(C=O)c1c(OC)c(Cl)cc(F)c1-c1nn(C)c(OC(F)F)c1Cl (stereo not shown) [Compound 1-42],20
2,C#CCOC(=O)Nc1c(OC)c(Cl)cc(F)c1-c1nn(C)c(OC(F)F)c1Cl [Compound 1-74],95

# Tested on: wheat (Triticum aestivum L.), TRZAX
# Assay: Test Example 2 post-emergence (foliage treatment) herbicidal activity, TRZAX
# Format: in vivo
# Conditions: 63 g a.i./ha
# Outline: as §1
row,SMILES,"growth controlling degree, TRZAX [%]"
1,CCOC(=O)C(C)N(C=O)c1c(OC)c(Cl)cc(F)c1-c1nn(C)c(OC(F)F)c1Cl (stereo not shown) [Compound 1-42],20
2,C#CCOC(=O)Nc1c(OC)c(Cl)cc(F)c1-c1nn(C)c(OC(F)F)c1Cl [Compound 1-74],50

# Tested on: green foxtail (Setaria viridis L.), SETVI
# Assay: Test Example 2 post-emergence (foliage treatment) herbicidal activity, SETVI
# Format: in vivo
# Conditions: 63 g a.i./ha
# Outline: as §1
row,SMILES,"growth controlling degree, SETVI [%]"
1,CCOC(=O)C(C)N(C=O)c1c(OC)c(Cl)cc(F)c1-c1nn(C)c(OC(F)F)c1Cl (stereo not shown) [Compound 1-42],50
2,C#CCOC(=O)Nc1c(OC)c(Cl)cc(F)c1-c1nn(C)c(OC(F)F)c1Cl [Compound 1-74],100

# Tested on: green foxtail (Setaria viridis L.): SETVI
# Assay: Test Example 1 pre-emergence herbicidal activity, SETVI
# Format: in vivo
# Conditions: Rate 63 g a.i./ha, visually observed 20th to 23rd day after application
# Outline: (§3)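 Visual scoring 20–23 days after treatment gives percent growth control, where 0 equals untreated and 100 means complete kill. Treatment: pre-emergence spray of formulated compound in 500 L/ha water, one day after sowing in upland soil.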
row,SMILES,Pre-emergence Herbicidal Activity SETVI (growth controlling degree) [%]
1,C#CCOC(=O)Nc1c(OC)c(Cl)cc(F)c1-c1nn(C)c(OC(F)F)c1Cl [Compound 1-74],100

# Same assay, conditions: Rate 125 g a.i./ha, visually observed 20th to 23rd day after application
row,SMILES,Pre-emergence Herbicidal Activity SETVI (growth controlling degree) [%]
1,CCOC(=O)C(C)N(C=O)c1c(OC)c(Cl)cc(F)c1-c1nn(C)c(OC(F)F)c1Cl (stereo not shown) [Compound 1-42],0

# Tested on: wheat (Triticum aestivum L.): TRZAX
# Assay: Test Example 1 pre-emergence herbicidal activity, TRZAX
# Format: in vivo
# Conditions: Rate 63 g a.i./ha, visually observed 20th to 23rd day after application
# Outline: as §3
row,SMILES,Pre-emergence Herbicidal Activity TRZAX (growth controlling degree) [%]
1,C#CCOC(=O)Nc1c(OC)c(Cl)cc(F)c1-c1nn(C)c(OC(F)F)c1Cl [Compound 1-74],30

# Same assay, conditions: Rate 125 g a.i./ha, visually observed 20th to 23rd day after application
row,SMILES,Pre-emergence Herbicidal Activity TRZAX (growth controlling degree) [%]
1,CCOC(=O)C(C)N(C=O)c1c(OC)c(Cl)cc(F)c1-c1nn(C)c(OC(F)F)c1Cl (stereo not shown) [Compound 1-42],0

# Tested on: soybean (Glycine max Merr.), GLXMA
# Assay: Test Example 2 post-emergence (foliage treatment) herbicidal activity, GLXMA
# Format: in vivo
# Conditions: 63 g a.i./ha
# Outline: as §1
row,SMILES,"growth controlling degree, GLXMA [%]"
1,CCOC(=O)C(C)N(C=O)c1c(OC)c(Cl)cc(F)c1-c1nn(C)c(OC(F)F)c1Cl (stereo not shown) [Compound 1-42],10
2,C#CCOC(=O)Nc1c(OC)c(Cl)cc(F)c1-c1nn(C)c(OC(F)F)c1Cl [Compound 1-74],60

# Tested on: rice (Oryza sativa L.): ORYSA
# Assay: Test Example 1 pre-emergence herbicidal activity, ORYSA
# Format: in vivo
# Conditions: Rate 63 g a.i./ha, visually observed 20th to 23rd day after application
# Outline: as §3
row,SMILES,Pre-emergence Herbicidal Activity ORYSA (growth controlling degree) [%]
1,C#CCOC(=O)Nc1c(OC)c(Cl)cc(F)c1-c1nn(C)c(OC(F)F)c1Cl [Compound 1-74],50

# Same assay, conditions: Rate 125 g a.i./ha, visually observed 20th to 23rd day after application
row,SMILES,Pre-emergence Herbicidal Activity ORYSA (growth controlling degree) [%]
1,CCOC(=O)C(C)N(C=O)c1c(OC)c(Cl)cc(F)c1-c1nn(C)c(OC(F)F)c1Cl (stereo not shown) [Compound 1-42],0

# Tested on: prickly sida (Sida spinosa L.), SIDSP
# Assay: Test Example 2 post-emergence (foliage treatment) herbicidal activity, SIDSP
# Format: in vivo
# Conditions: 63 g a.i./ha
# Outline: as §1
row,SMILES,"growth controlling degree, SIDSP [%]"
1,CCOC(=O)C(C)N(C=O)c1c(OC)c(Cl)cc(F)c1-c1nn(C)c(OC(F)F)c1Cl (stereo not shown) [Compound 1-42],70
2,C#CCOC(=O)Nc1c(OC)c(Cl)cc(F)c1-c1nn(C)c(OC(F)F)c1Cl [Compound 1-74],100

# Tested on: velvetleaf (Abutilon theophrasti): ABUTH
# Assay: Test Example 1 pre-emergence herbicidal activity, ABUTH
# Format: in vivo
# Conditions: Rate 63 g a.i./ha, visually observed 20th to 23rd day after application
# Outline: as §3
row,SMILES,Pre-emergence Herbicidal Activity ABUTH (growth controlling degree) [%]
1,C#CCOC(=O)Nc1c(OC)c(Cl)cc(F)c1-c1nn(C)c(OC(F)F)c1Cl [Compound 1-74],100

# Same assay, conditions: Rate 125 g a.i./ha, visually observed 20th to 23rd day after application
row,SMILES,Pre-emergence Herbicidal Activity ABUTH (growth controlling degree) [%]
1,CCOC(=O)C(C)N(C=O)c1c(OC)c(Cl)cc(F)c1-c1nn(C)c(OC(F)F)c1Cl (stereo not shown) [Compound 1-42],0

# Tested on: redroot pigweed (Amaranthus retroflexus L.): AMARE
# Assay: Test Example 1 pre-emergence herbicidal activity, AMARE
# Format: in vivo
# Conditions: Rate 63 g a.i./ha, visually observed 20th to 23rd day after application
# Outline: as §3
row,SMILES,Pre-emergence Herbicidal Activity AMARE (growth controlling degree) [%]
1,C#CCOC(=O)Nc1c(OC)c(Cl)cc(F)c1-c1nn(C)c(OC(F)F)c1Cl [Compound 1-74],100

# Same assay, conditions: Rate 125 g a.i./ha, visually observed 20th to 23rd day after application
row,SMILES,Pre-emergence Herbicidal Activity AMARE (growth controlling degree) [%]
1,CCOC(=O)C(C)N(C=O)c1c(OC)c(Cl)cc(F)c1-c1nn(C)c(OC(F)F)c1Cl (stereo not shown) [Compound 1-42],0

# Tested on: crabgrass (Digitaria sanguinalis L.), DIGSA
# Assay: Test Example 2 post-emergence (foliage treatment) herbicidal activity, DIGSA
# Format: in vivo
# Conditions: 63 g a.i./ha
# Outline: as §2
row,SMILES,"growth controlling degree, DIGSP [%]"
1,CCOC(=O)C(C)N(C=O)c1c(OC)c(Cl)cc(F)c1-c1nn(C)c(OC(F)F)c1Cl (stereo not shown) [Compound 1-42],30
2,C#CCOC(=O)Nc1c(OC)c(Cl)cc(F)c1-c1nn(C)c(OC(F)F)c1Cl [Compound 1-74],70

# Tested on: barnyardgrass (Echinochloa crus-galli L.): ECHCG
# Assay: Test Example 1 pre-emergence herbicidal activity, ECHCG
# Format: in vivo
# Conditions: Rate 63 g a.i./ha, visually observed 20th to 23rd day after application
# Outline: as §3
row,SMILES,Pre-emergence Herbicidal Activity ECHCG (growth controlling degree) [%]
1,C#CCOC(=O)Nc1c(OC)c(Cl)cc(F)c1-c1nn(C)c(OC(F)F)c1Cl [Compound 1-74],90

# Same assay, conditions: Rate 125 g a.i./ha, visually observed 20th to 23rd day after application
row,SMILES,Pre-emergence Herbicidal Activity ECHCG (growth controlling degree) [%]
1,CCOC(=O)C(C)N(C=O)c1c(OC)c(Cl)cc(F)c1-c1nn(C)c(OC(F)F)c1Cl (stereo not shown) [Compound 1-42],0

# Tested on: corn (Zea mays L.): ZEAMX
# Assay: Test Example 1 pre-emergence herbicidal activity, ZEAMX
# Format: in vivo
# Conditions: Rate 63 g a.i./ha, visually observed 20th to 23rd day after application
# Outline: as §3
row,SMILES,Pre-emergence Herbicidal Activity ZEAMX (growth controlling degree) [%]
1,C#CCOC(=O)Nc1c(OC)c(Cl)cc(F)c1-c1nn(C)c(OC(F)F)c1Cl [Compound 1-74],10

# Same assay, conditions: Rate 125 g a.i./ha, visually observed 20th to 23rd day after application
row,SMILES,Pre-emergence Herbicidal Activity ZEAMX (growth controlling degree) [%]
1,CCOC(=O)C(C)N(C=O)c1c(OC)c(Cl)cc(F)c1-c1nn(C)c(OC(F)F)c1Cl (stereo not shown) [Compound 1-42],0

# Tested on: velvetleaf (Abutilon theophrasti), ABUTH
# Assay: Test Example 2 post-emergence (foliage treatment) herbicidal activity, ABUTH
# Format: in vivo
# Conditions: 63 g a.i./ha
# Outline: as §1
row,SMILES,"growth controlling degree, ABUTH [%]"
1,CCOC(=O)C(C)N(C=O)c1c(OC)c(Cl)cc(F)c1-c1nn(C)c(OC(F)F)c1Cl (stereo not shown) [Compound 1-42],95
2,C#CCOC(=O)Nc1c(OC)c(Cl)cc(F)c1-c1nn(C)c(OC(F)F)c1Cl [Compound 1-74],100

# Tested on: crabgrass (Digitaria sanguinalis L.): DIGSA
# Assay: Test Example 1 pre-emergence herbicidal activity, DIGSA
# Format: in vivo
# Conditions: Rate 63 g a.i./ha, visually observed 20th to 23rd day after application
# Outline: as §3
row,SMILES,Pre-emergence Herbicidal Activity DIGSP (growth controlling degree) [%]
1,C#CCOC(=O)Nc1c(OC)c(Cl)cc(F)c1-c1nn(C)c(OC(F)F)c1Cl [Compound 1-74],100

# Same assay, conditions: Rate 125 g a.i./ha, visually observed 20th to 23rd day after application
row,SMILES,Pre-emergence Herbicidal Activity DIGSP (growth controlling degree) [%]
1,CCOC(=O)C(C)N(C=O)c1c(OC)c(Cl)cc(F)c1-c1nn(C)c(OC(F)F)c1Cl (stereo not shown) [Compound 1-42],0

# Tested on: soybean (Glycine max Merr.): GLXMA
# Assay: Test Example 1 pre-emergence herbicidal activity, GLXMA
# Format: in vivo
# Conditions: Rate 63 g a.i./ha, visually observed 20th to 23rd day after application
# Outline: as §3
row,SMILES,Pre-emergence Herbicidal Activity GLXMA (growth controlling degree) [%]
1,C#CCOC(=O)Nc1c(OC)c(Cl)cc(F)c1-c1nn(C)c(OC(F)F)c1Cl [Compound 1-74],0

# Same assay, conditions: Rate 125 g a.i./ha, visually observed 20th to 23rd day after application
row,SMILES,Pre-emergence Herbicidal Activity GLXMA (growth controlling degree) [%]
1,CCOC(=O)C(C)N(C=O)c1c(OC)c(Cl)cc(F)c1-c1nn(C)c(OC(F)F)c1Cl (stereo not shown) [Compound 1-42],0

# Tested on: redroot pigweed (Amaranthus retroflexus L.), AMARE
# Assay: Test Example 2 post-emergence (foliage treatment) herbicidal activity, AMARE
# Format: in vivo
# Conditions: 63 g a.i./ha
# Outline: as §2
row,SMILES,"growth controlling degree, AMARE [%]"
1,CCOC(=O)C(C)N(C=O)c1c(OC)c(Cl)cc(F)c1-c1nn(C)c(OC(F)F)c1Cl (stereo not shown) [Compound 1-42],100
2,C#CCOC(=O)Nc1c(OC)c(Cl)cc(F)c1-c1nn(C)c(OC(F)F)c1Cl [Compound 1-74],100

# Tested on: barnyardgrass (Echinochloa crus-galli L.), ECHCG
# Assay: Test Example 2 post-emergence (foliage treatment) herbicidal activity, ECHCG
# Format: in vivo
# Conditions: 63 g a.i./ha
# Outline: as §2
row,SMILES,"growth controlling degree, ECHCO [%]"
1,CCOC(=O)C(C)N(C=O)c1c(OC)c(Cl)cc(F)c1-c1nn(C)c(OC(F)F)c1Cl (stereo not shown) [Compound 1-42],30
2,C#CCOC(=O)Nc1c(OC)c(Cl)cc(F)c1-c1nn(C)c(OC(F)F)c1Cl [Compound 1-74],98

# Tested on: prickly sida (Sida spinosa L.): SEDSP
# Assay: Test Example 1 pre-emergence herbicidal activity, SIDSP
# Format: in vivo
# Conditions: Rate 63 g a.i./ha, visually observed 20th to 23rd day after application
# Outline: as §3
row,SMILES,Pre-emergence Herbicidal Activity SIDSP (growth controlling degree) [%]
1,C#CCOC(=O)Nc1c(OC)c(Cl)cc(F)c1-c1nn(C)c(OC(F)F)c1Cl [Compound 1-74],100

# Same assay, conditions: Rate 125 g a.i./ha, visually observed 20th to 23rd day after application
row,SMILES,Pre-emergence Herbicidal Activity SIDSP (growth controlling degree) [%]
1,CCOC(=O)C(C)N(C=O)c1c(OC)c(Cl)cc(F)c1-c1nn(C)c(OC(F)F)c1Cl (stereo not shown) [Compound 1-42],0
